Measured values as given in EP0652009A1, “Identification and use of protease inhibitors” (ELI LILLY AND COMPANY, priority 1993, dated 1995).

Each compound was assayed against Cathepsin D (Homo sapiens, UniProt P07339) (assay: Assay 3: cathepsin D inhibition activity (non-cellular assay, chromogenic substrate)). Details: 4 µM test compound; inhibition of initial rate relative to control; cathepsin D from human placental tissue; read-out: % inhibition at 4µ M.
Assay type: biochemical
Set-up: Frozen human placental tissue was thawed and homogenized; from tissue; host or cells: human placenta
Procedure: A third non-cellular assay for determining in vitro aspartyl protease inhibitory activity is generally described in Jupp, R.A. et al., (1990) Biochem. J., 265:871-878 and Rao et al., J. Med. Chem. (1993), in press. The assay is carried out by incubating a test compound with a suitable aspartyl protease, such as cathepsin D, in the presence of a chromogenic substrate. The inhibition constant, Ki, value may then be determined by quantifying the competitive inhibition of the hydrolysis of the chromogenic substrate. A variety of chromogenic substrates that are useful for assaying aspartyl protease activity are discussed in Dunn, et al., (1986) Biochem. J., 237:899-906. A preferred chromogenic substrate for a cathepsin D assay is disclosed in Scarborough, P.E. et al., Protein Science, (1993), 2:264-276.
Concentrations of substrate solutions and cleavage products may be verified using amino acid analysis. The enzyme preparations may be titrated with a tightly binding inhibitor to quantitate the active concentration of the enzyme. Enzyme concentrations are typically in the range of from 1-6 nM. Stock solutions of the test compound are prepared at concentrations ranging from 1.0 to 5.0 mg/mL, and then 50-100 µL portions of these stock solutions may be further diluted to a concentration in the range of 5 to 300 µM for rate determinations.
[…] Then, the test compounds are assayed over a concentration range of, for example, 5 to 300 µM for rate determinations.
A decrease in absorbance in the range of 284-324 nm may be monitored using a spectrophotometer. Absorbance readings are typically taken at various timepoints. The initial velocities are then plotted versus the initial substrate concentration. […] Estimates of Ki may then be determined using the Dixon construction. Dixon, M., (1953) Biochem J., 55:170-171.
If the ratio of the total active enzyme concentration to the estimated Ki value ([E]t/Ki) is less than 0.2, then the precise Ki value may be computed by using a non-linear curve fitting program based on the equation: v= Vmax [S]/[S] + Km (1 + [I]/Ki ) [formula] where v is the initial rate, [S] is the initial substrate concentration, [I] is the inhibitor concentration and Km and Ki are defined above. […] P.J.F., (1972) Biochem J., 127:321-333. This Assay is exemplfied in Assay 3.
The homogenate was centrifuged at 10,000 rpm for 30 minutes in a Sorvall GSA rotor. The supernatant was adjusted to pH 3.7 using 5.7N HCl and then sodium acetate was added to a concentration of 0.1M. The resultant mixture was incubated for 30 minutes at 0°C, resulting in the formation of a precipitate. This precipitate was removed by centrifugation (30 minutes, 10,000 rpm). The acidic supernatent was applied to a chromatography column (pepstatinyl agarose equilibrated with 0.1M sodium acetate, pH 3.5, 0.1% Brij 35, and 1M NaCl), washed until the OD₂₈₀ of the effluent returned to baseline, and then eluted with 50mM Tris-HCl, pH 8.6, 0.1% Brij 35, and 1M NaCl. The eluent was dialyzed against 10mM sodium phosphate, pH 7.0, 0.1% Brij 35, and 0.1M NaCl, and then applied to a 1 mL DEAE-Sephacel column equilibrated with the same buffer. Cathepsin D was recovered in the breakthrough fraction.
The enzyme mixture (125 µL buffer (0.1M sodium formate at pH 3.7), 1 µL of a 1mM solution of test compound, 4 µL of DMSO, enzyme and water to provide a total volume of 230 µL) was vortexed and prewarmed for four minutes before the addition of the chromogenic substrate. After warming, the enzyme mixture was added to 20 µL of a […] dilution of substrate solution. A control reaction mixture was similarly prepared without the addition of the test compound. The percent of inhibition of the initial rate of reaction in the presence of a particular concentration of test compound (i.e. 4 µM) may be determined for the test compound by monitoring the reaction mixture in parallel to the control reaction. […]

Chain of Cathepsin D (P07339 169-412 limits assumed): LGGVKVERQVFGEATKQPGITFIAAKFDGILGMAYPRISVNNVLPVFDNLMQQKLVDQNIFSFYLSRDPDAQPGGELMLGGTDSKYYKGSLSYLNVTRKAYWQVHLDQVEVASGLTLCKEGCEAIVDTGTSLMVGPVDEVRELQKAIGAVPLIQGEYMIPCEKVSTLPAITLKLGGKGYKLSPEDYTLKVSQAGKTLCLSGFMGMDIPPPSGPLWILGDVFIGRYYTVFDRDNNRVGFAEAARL
Chain of Cathepsin D (P07339 65-162 limits assumed): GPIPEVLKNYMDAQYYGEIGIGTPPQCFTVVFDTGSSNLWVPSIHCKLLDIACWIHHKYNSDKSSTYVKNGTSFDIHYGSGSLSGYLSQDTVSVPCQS

Structure (SMILES) | inhibition at 4 µM [%]
CC[C@H](C)[C@H](NC(=O)OCc1ccc2ccccc2n1)C(=O)N[C@@H](Cc1ccccc1)[C@@H]1O[C@@H]1[C@H](Cc1ccccc1)NC(=O)[C@@H](NC(=O)OCc1ccc2ccccc2n1)[C@@H](C)CC [Example 3, 1,6-Diphenyl-2(S);5(S)-di[N-[2(S)-N[(quinolin-2-ylmethoxy)carbonyl]amino-3(S)-methylpentanoyl]amino]-3,4-cis-epoxyhexane] | 40
CC(C)(C)NC(=O)c1sccc1C[C@@H](O)[C@H](Cc1ccccc1)NC(=O)[C@H](CC(N)=O)NC(=O)c1ccc2ccccc2n1 [Example 14, [1S-(1R*,4R*,5S*)]-N-(1-(2-Amino-2-oxoethyl)-2-oxo-3-aza-4-phenylmethyl-5-hydroxy-6-(2-(1-t-butylamino-1-oxomethyl)thien-3-yl)hexyl)-2-quinolinyl carboxamide] | 22
CC(C)(C)NC(=O)c1ccccc1C[C@@H](O)[C@H](Cc1ccccc1)NC(=O)[C@H](CC(=O)O)NC(=O)c1ccc2ccccc2n1 [Example 15, [1S-(1R*,R*,5S*)]-N-(1-(2-Hydroxy-2-oxoethyl)-2-oxo-3-aza-4-phenylmethyl-5-hydroxy-6-(2-(1-t-butylamino-1-oxomethyl)phenyl)hexyl)-2-quinolinyl carboxamide] | 49

Further lines, results first:

inhibition at 4 µM [%] | Structure (SMILES)
36 | CC(C)(C)NC(=O)c1ccccc1C[C@@H](O)[C@H](Cc1ccccc1)NC(=O)[C@H](CC(=O)NCc1ccccn1)NC(=O)c1ccc2ccccc2n1 [Example 16, [1S-(1R*,4R*,5S*)]-N-(1-(2-(N-2-Pyridylmethyl)amino)-2-oxoethyl]-2-oxo-3-aza-4-phenylmethyl-5-hydroxy-6-(2-(1-t-butylamino-1-oxomethyl)phenyl)hexyl)-2-quinolinyl carboxamide]
48 | CC(C)(C)NC(=O)c1ccccc1C[C@@H](O)[C@H](Cc1ccccc1)NC(=O)[C@H](CC(N)=O)NC(=O)c1cc(Cl)c2ccccc2n1 [Example 19, [1S-(1R*,4R*,5S*)]-N-(1-(2-Amino-2-oxoethyl)-2-oxo-3-aza-4-phenylmethyl-5-hydroxy-6-(2-(1-t-butylamino-1-oxomethyl)phenyl)hexyl)-4-chloroquinolin-2-yl carboxamide]

Same assay, conditions: cathepsin D from human placental tissue, chromogenic substrate, pH 3.7, 37°C

Structure (SMILES) | Ki [nM]
CC(C)C(NC(=O)OCc1ccccc1)C(=O)NC(Cc1ccccc1)C1OC1C(Cc1ccccc1)NC(=O)C(NC(=O)OCc1ccccc1)C(C)C [Example 1, 1,6-Diphenyl-2(S);5(S)-di[N-[2(S)-N(benzyloxycarbonyl)amino-3-methyl-butanoyl]amino]-3,4-cis-epoxyhexane] | 1160 ± 260
CC[C@H](NC(=O)OCc1ccccc1)C(=O)N[C@@H](Cc1ccccc1)[C@@H]1O[C@@H]1[C@H](Cc1ccccc1)NC(=O)[C@H](CC)NC(=O)OCc1ccccc1 [Example 2, 1,6-Diphenyl-2(S);5(S)-di[N-[2(S)-N(benzyloxycarbonyl)aminobutanoyl]amino]-3,4-cis-epoxyhexane] | 750 ± 140
CCC(NC(=O)N(C)Cc1ccc2ccccc2n1)C(=O)NC(Cc1ccccc1)C1OC1C(Cc1ccccc1)NC(=O)C(CC)NC(=O)N(C)Cc1ccc2ccccc2n1 [Example 4, 1,6-Diphenyl-2(S);5(S)-di[N-[2(S)-N-[[N(methyl)-N(quinolin-2-ylmethyl)amino]carbonyl]aminobutanoyl]amino]-3,4-cis-epoxyhexane] | 6200
CCC(C)C(NC(=O)N(C)Cc1ccc2ccccc2n1)C(=O)NC(Cc1ccccc1)C1OC1C(Cc1ccccc1)NC(=O)C(NC(=O)N(C)Cc1ccc2ccccc2n1)C(C)CC [Example 5, 1,6-Diphenyl-2(S);5(S)-di[N-[2(S)-N[[N(methyl)-N(quinolin-2-ylmethyl)amino]carbonyl]amino-3(S)-methylpentanoyl]amino]-3,4-cis-epoxyhexane] | 240
CC(C)(C)NC(=O)c1ccccc1CC(O)C(Cc1ccccc1)NC(=O)C(CC(N)=O)NC(=O)c1ccc2ccccc2n1 (stereo not drawn) [Example 6, [1S-(1R*,4R*,5S*)]-N-[1-(2-amino-2-oxoethyl)-2-oxo-3-aza-4-phenylmethyl-5-hydroxy-6-(2-(1-t-butylamino-1-oxomethyl)phenyl)hexyl]-2-quinolinyl carboxamide] | 1800 ± 260
Cc1ccc(CC(O)C(Cc2ccccc2)NC(=O)C(CC(N)=O)NC(=O)c2ccc3ccccc3n2)c(C(=O)NC(C)(C)C)c1 (stereo not drawn) [Example 7, [1S-(1R*,4R*,5S*)]-N-[1-(2-Amino-2-oxoethyl)-2-oxo-3-aza-4-phenylmethyl-5-hydroxy-6-(2-(1-t-butylamino-1-oxomethyl)-4-methylphenyl)hexyl]-2-quinolinyl carboxamide] | 420 ± 60
Cc1ccc2ccc(C(=O)N[C@@H](CC(N)=O)C(=O)N[C@@H](Cc3ccccc3)[C@H](O)Cc3ccccc3C(=O)NC(C)(C)C)nc2c1 [Example 8, [lS-(1R*,4R*,5S*)]-N-(1-(2-amino-2-oxoethyl)-2-oxo-3-aza-4-phenylmethyl-5-hydroxy-6-(2-(1-t-butylamino-1-oxomethyl)phenyl)hexyl)-7-methylquinolin-2-yl carboxamide] | 1170
Cc1cc(C(=O)N[C@@H](CC(N)=O)C(=O)N[C@@H](Cc2ccccc2)[C@H](O)Cc2ccccc2C(=O)NC(C)(C)C)nc2ccccc12 [Example 10, [1S-(1R*,4R*,5S*)]-N-(1-(2-Amino-2-oxoethyl)-2-oxo-3-aza-4-phenylmethyl-5-hydroxy-6-(2-(1-t-butylamino-1-oxomethyl)phenyl)hexyl)-4-methylquinolin-2-yl carboxamide] | 5510
CC(C)(C)NC(=O)c1ccccc1CC(O)C(Cc1ccccc1)NC(=O)C(CC(N)=O)NC(=O)C(Cc1cccc2ccccc12)NC(=O)OC(C)(C)C (stereo not drawn) [Example 25, [2R-(2R*,3S*,6S*,9R*)]-N-t-Butyl-2-[2-hydroxy-3-phenylmethyl-4,7-diaza-5,8-dioxo-6-(2-amino-2-oxoethyl)-9-N(t-butoxycarbonyl)amino-10-naphth-1-yl]decyl benzamide] | 1440 ± 260

Now from value to compound:

Ki [nM] | Structure (SMILES)
2300 ± 200 | CC(C)(C)NC(=O)c1ccccc1CC(O)C(Cc1ccccc1)NC(=O)C(CC(=O)NCc1ncc[nH]1)NC(=O)c1ccc2ccccc2n1 (stereo not drawn) [Example 17, [1S-(1R*,4R*,5S*)]-N-(1-(2-(N-2-Imidazolylmethyl)amino)-2-oxoethyl)-2-oxo-3-aza-4-phenylmethyl-5-hydroxy-6-(2-(1-t-butylamino-1-oxomethyl)phenyl)hexyl)-2-quinolinyl carboxamide]
2200 ± 200 | CC(C)(C)NC(=O)c1ccccc1C[C@@H](O)[C@H](Cc1ccccc1)NC(=O)[C@H](CC(=O)NCc1nc2ccccc2[nH]1)NC(=O)c1ccc2ccccc2n1 [Example 18, [1S-(1R*,4R*,5S*)]-N-(1-(2-(N-2-Benzimidazolylmethyl)amino)-2-oxoethyl)-2-oxo-3-aza-4-phenylmethyl-5-hydroxy-6-(2-(1-t-butylamino-1-oxomethyl)phenyl)hexyl)-2-quinolinyl carboxamide]
900 ± 100 | CC(C)(C)NC(=O)c1ccccc1CC(O)C(Cc1ccccc1)NC(=O)C(CC(N)=O)NC(=O)c1ccc2cccc(C(F)(F)F)c2n1 (stereo not drawn) [Example 22, [1S-(1R*,4R*,5S*)]-N-(1-(2-Amino-2-oxoethyl)-2-oxo-3-aza-4-phenylmethyl-5-hydroxy-6-(2-(1-t-butylamino-1-oxomethyl)phenyl)hexyl)-8-trifluoromethyl-quinolin-2-yl carboxamide]
